ChEMBL document CHEMBL5244272 (Eur J Med Chem, 2021)

Columns and labels:
Assay type in all cases: functional, organism-based
[1] = tested on: Plasmodium falciparum; test: Antimalarial activity against Plasmodium falciparum W2
[2] = tested on: Plasmodium falciparum; test: Antimalarial activity against Plasmodium falciparum D6
[3] = tested on: Plasmodium falciparum; test: Antimalarial activity against Plasmodium falciparum NF54
[4] = tested on: Plasmodium falciparum; test: Antimalarial activity against Plasmodium falciparum D10
[5] = tested on: Plasmodium falciparum; test: Antimalarial activity against Plasmodium falciparum K1; conditions: for EC50: read-out: EC50
[6] = tested on: Plasmodium falciparum; test: Antimalarial activity against Plasmodium falciparum 3D7

Row | Structure (SMILES) | IC50 [1] | IC50 [2] | other results
1 | CCCC[C@H]1O[C@@H]2O[C@]3(C)CC[C@H]4[C@H](C)CC[C@@H]([C@H]1C)[C@@]24OO3 | 0.16 ng/mL | 0.41 ng/mL | –
2 | C[C@@H]1CCCCC12OOC1(CCCC[C@@H]1C)OO2 (stereo partly specified) [WR-148999] | 7.3 nM | 8.4 nM | –
3 | CCCCC(=O)C1=C(C)[C@@H]2CC[C@@H](C)[C@@H]3CC[C@]4(C)OO[C@@]23[C@H](O1)O4 | – | – | IC50 [3]: 4.3 nM
4 | C[C@H]1[C@H](N2CCNCC2)O[C@@H]2O[C@]3(C)CC[C@H]4[C@H](C)CC[C@@H]1[C@@]24OO3 | – | – | IC50 [3]: 3.2 nM
5 | CC1(C)OOC2(OCCc3ccccc3)CCCC1C2 (stereo unspecified) | 250 nM | – | IC50 [4]: 670 nM
6 | C[C@H]1[C@H](Nc2ccc(I)cc2)O[C@@H]2O[C@]3(C)CC[C@H]4[C@H](C)CC[C@@H]1[C@@]24OO3 | 0.33 ng/mL | 0.33 ng/mL | –
7 | C[C@H]1[C@@H](Nc2cccc(F)c2)O[C@@H]2O[C@]3(C)CC[C@H]4[C@H](C)CC[C@@H]1[C@@]24OO3 | < 0.16 ng/mL | < 0.16 ng/mL | –
8 | C[C@@H]1CCC[C@@H](C)C12OOC1(OO2)[C@@H](C)CCC[C@@H]1C | > 1000 nM | > 1000 nM | –
9 | C[C@H]1[C@H](N2CCN([C@@H]3O[C@H](CO)[C@@H](O)[C@H](O)[C@H]3O)CC2)O[C@@H]2O[C@]3(C)CC[C@H]4[C@H](C)CC[C@@H]1[C@@]24OO3 | 0.71 nM | – | IC50 [4]: 0.87 nM
10 | C[C@H]1[C@H](NS(N)(=O)=O)O[C@@H]2O[C@]3(C)CC[C@H]4[C@H](C)CC[C@@H]1[C@@]24OO3 | 2.04 nM | – | IC50 [5]: 1.79 nM; IC50 [3]: 3.1 nM
11 | COC(=O)Nc1nc2cc(C(=O)c3ccccc3)ccc2n1C(=O)O[C@H]1O[C@@H]2O[C@]3(C)CC[C@H]4[C@H](C)CC[C@@H]([C@H]1C)[C@@]24OO3 | – | – | IC50 [6]: 6.86 nM
12 | C[C@@H]1CC[C@H]2[C@H](C[C@@]3(CCCCCCCC4C(=O)O[C@@H]5O[C@]6(C)CC[C@H]7[C@H](C)CC[C@@H]4[C@@]57OO6)C(=O)O[C@@H]4O[C@]5(C)CC[C@H]6[C@H](C)CC[C@@H]3[C@@]46OO5)C(=O)O[C@@H]3O[C@]4(C)CC[C@@H]1[C@]32OO4 (stereo partly specified) | – | – | EC50 [5]: 3.1 nM
13 | CC1(C)CCCCC12OOC1(CCCCC1(C)C)OO2 (stereo unspecified) | > 1000 nM | > 1000 nM | –
14 | C[C@@H]1CC[C@H]2[C@@H](C)C(=O)N(C(=O)Cc3ccc([N+](=O)[O-])cc3)[C@@H]3O[C@]4(C)CC[C@@H]1[C@@]23OO4 | – | – | IC50 [5]: 0.4 ng/mL; IC50 [6]: 0.6 ng/mL
15 | COC(=O)CC[C@@H](C)[C@H]1CCC2C3CC[C@@H]4CC5(CC[C@]4(C)C3C[C@H](OC(C)=O)[C@@]21C)OOC(C)(C(F)(F)F)OO5 (stereo partly specified) | – | – | IC50 [5]: 7.6 nM
16 | COC(=O)CC[C@@H](C)[C@H]1CCC2C3CC[C@@H]4CC5(CC[C@]4(C)C3C[C@H](OC(C)=O)[C@@]21C)OOC(C)(C)OO5 (stereo partly specified) | – | – | IC50 [5]: 3 nM
17 | C[C@H]1[C@H](Nc2ccccc2)O[C@@H]2O[C@]3(C)CC[C@H]4[C@H](C)CC[C@@H]1[C@@]24OO3 | 0.66 ng/mL | 0.66 ng/mL | –
18 | C[C@@H]1CC[C@H]2[C@@H](C)C(=O)N(C(=O)c3cccc([N+](=O)[O-])c3)[C@@H]3O[C@]4(C)CC[C@@H]1[C@@]23OO4 | – | – | IC50 [5]: 0.6 ng/mL; IC50 [6]: 0.46 ng/mL
19 | CC1=C(C(O)(c2ccccc2)c2ccccc2)O[C@@H]2O[C@]3(C)CC[C@H]4[C@H](C)CC[C@@H]1[C@@]24OO3 | – | – | IC50 [3]: 4.5 nM
20 | CC(C)OC[C@H]1O[C@@H](O[C@H]2O[C@@H]3O[C@]4(C)CC[C@H]5[C@H](C)CC[C@@H]([C@H]2C)[C@@]35OO4)[C@H](O)[C@@H](O)[C@@H]1OC(C)C | 0.31 ng/mL | 1.43 ng/mL | –
21 | CCCCCCCC[C@H]1CCC2C3CC[C@H]4C[C@]5(CC[C@]4(C)C3CC[C@@]21C)OO[C@]1(CC[C@@H]2CCC3C4CC[C@H](CCCCCCCC)[C@@]4(C)CCC3[C@@]2(C)C1)OO5 (stereo partly specified) | – | 155 nM | –
22 | C=C(c1ccc(F)cc1F)C1COC2(OO1)C1CC3CC(C1)CC2C3 (stereo unspecified) | – | – | IC50 [6]: 25.7 nM
23 | C[C@@H]1CC[C@H]2[C@H](C[C@@]3(CCCCCC[C@]4(C[C@@H]5C(=O)O[C@@H]6O[C@]7(C)CC[C@H]8[C@H](C)CC[C@@H]5[C@@]68OO7)C(=O)O[C@@H]5O[C@]6(C)CC[C@H]7[C@H](C)CC[C@@H]4[C@@]57OO6)C(=O)O[C@@H]4O[C@]5(C)CC[C@H]6[C@H](C)CC[C@@H]3[C@@]46OO5)C(=O)O[C@@H]3O[C@]4(C)CC[C@@H]1[C@]32OO4 | – | – | EC50 [5]: 20 nM
24 | C[C@H]1[C@H](Nc2ccc(Br)cc2)O[C@@H]2O[C@]3(C)CC[C@H]4[C@H](C)CC[C@@H]1[C@@]24OO3 | 0.23 ng/mL | 0.23 ng/mL | –

Row | Structure (SMILES) | IC50 [1] | IC50 [2] | other results
25 | C[C@@H]1CC[C@H]2[C@@H](CCCc3cc(C(F)(F)F)cc(C(F)(F)F)c3)C(=O)O[C@@H]3O[C@]4(C)CC[C@@H]1[C@]32OO4 | 7.11 ng/mL | 0.78 ng/mL | IC50 [5]: 4.06 ng/mL
26 | C[C@H]1[C@@H](O[C@@H]2O[C@H](CO)[C@@H](O)[C@H](O)[C@H]2O)O[C@@H]2O[C@]3(C)CC[C@H]4[C@H](C)CC[C@@H]1[C@@]24OO3 | 0.19 ng/mL | 2.48 ng/mL | –
27 | C[C@@H]1CC[C@H]2[C@@H](CCCc3ccccc3)C(=O)O[C@@H]3O[C@]4(C)CC[C@@H]1[C@]32OO4 | 1.35 ng/mL | 0.9 ng/mL | –
28 | CS(=O)(=O)N1CCN(CCCOc2ccc(C3CCC4(CC3)OOC3(OO4)C4CC5CC(C4)CC3C5)cc2)CC1 (stereo unspecified) | – | – | IC50 [6]: 3.7 nM
29 | C[C@@H]1CC[C@H]2[C@@H](CCCc3ccc(Cl)cc3)C(=O)O[C@@H]3O[C@]4(C)CC[C@@H]1[C@]32OO4 | 2.6 ng/mL | 1.9 ng/mL | –
30 | CCCCNC(=O)CCC(C)[C@H]1CCC2C3C(C[C@H](OC(C)=O)[C@@]21C)[C@@]1(C)CC[C@]2(C[C@@H]1C[C@H]3OC(C)=O)OO[C@@]1(CC[C@@H]3C[C@@H](OC(C)=O)C4C5CC[C@H](C(C)CCC(=O)NCCCC)[C@@]5(C)[C@@H](OC(C)=O)CC4[C@@]3(C)C1)OO2 (stereo partly specified) | – | 9.29 nM | –
31 | c1cc(C2CCC3(CC2)OOC2(OO3)C3CC4CC(C3)CC2C4)ccc1OCCNC1CCOCC1 (stereo unspecified) | – | – | IC50 [6]: 0.5 nM
32 | C[C@H]1[C@@H](O[C@H](CCC(=O)O)c2ccc(Cl)cc2)O[C@@H]2O[C@]3(C)CC[C@H]4[C@H](C)CC[C@@H]1[C@@]24OO3 | 0.357 ng/mL | 0.38 ng/mL | –
33 | C[C@@H]1CC[C@H]2[C@@H](CCCc3cc(F)cc(F)c3)C(=O)O[C@@H]3O[C@]4(C)CC[C@@H]1[C@]32OO4 | 6.5 ng/mL | 0.82 ng/mL | IC50 [5]: 3.2 ng/mL
34 | CCCCCCCCS(=O)(=O)N1C(=O)[C@H](C)[C@@H]2CC[C@@H](C)[C@@H]3CC[C@]4(C)OO[C@]32[C@H]1O4 | – | – | IC50 [5]: 1.1 ng/mL; IC50 [6]: 2.1 ng/mL
35 | COC(=O)CC(C)CO[C@H]1O[C@@H]2O[C@]3(C)CC[C@H]4[C@H](C)CC[C@@H]([C@H]1C)[C@@]24OO3 (stereo partly specified) | 0.48 ng/mL | 1.91 ng/mL | –
36 | CS(=O)(=O)N1CCN(CCOc2ccc(C3CCC4(CC3)OOC3(OO4)C4CC5CC(C4)CC3C5)cc2)CC1 (stereo unspecified) | – | – | IC50 [6]: 3.5 nM
37 | C[C@@H]1CC[C@H]2[C@H](C[C@@]3(CCCCCCC[C@]4(C[C@@H]5C(=O)O[C@@H]6O[C@]7(C)CC[C@H]8[C@H](C)CC[C@@H]5[C@@]68OO7)C(=O)O[C@@H]5O[C@]6(C)CC[C@H]7[C@H](C)CC[C@@H]4[C@@]57OO6)C(=O)O[C@@H]4O[C@]5(C)CC[C@H]6[C@H](C)CC[C@@H]3[C@@]46OO5)C(=O)O[C@@H]3O[C@]4(C)CC[C@@H]1[C@]32OO4 | – | – | EC50 [5]: 5.8 nM
38 | C[C@H]1[C@@H](OCc2ccc(C(=O)O)cc2)O[C@@H]2O[C@@]3(C)CC[C@H]4[C@H](C)CC[C@@H]1[C@@]24OO3 | 1.38 ng/mL | 4.07 ng/mL | –
39 | C[C@H]1[C@@H](O[C@H](CCC(=O)O)c2ccc(Br)cc2)O[C@@H]2O[C@]3(C)CC[C@H]4[C@H](C)CC[C@@H]1[C@@]24OO3 | 0.313 ng/mL | 0.405 ng/mL | –
40 | C[C@@H]1CC[C@H]2[C@@H](C)C(=O)N(S(=O)(=O)c3cccc4cccnc34)[C@@H]3O[C@]4(C)CC[C@@H]1[C@@]23OO4 | – | – | IC50 [5]: 2 ng/mL; IC50 [6]: 1.9 ng/mL
41 | C[C@@H]1CC[C@H]2[C@@H](C)C(=O)N(S(=O)(=O)c3cccc([N+](=O)[O-])c3)[C@@H]3O[C@]4(C)CC[C@@H]1[C@@]23OO4 | – | – | IC50 [5]: 2.2 ng/mL; IC50 [6]: 2.1 ng/mL
42 | C[C@@H]1CC[C@H]2[C@@H](C)C(=O)N(S(=O)(=O)c3ccc4ccccc4c3)[C@@H]3O[C@]4(C)CC[C@@H]1[C@@]23OO4 | – | – | IC50 [5]: 0.2 ng/mL; IC50 [6]: 2.8 ng/mL
43 | C[C@@H]1CC[C@H]2[C@@H](C)C(=O)N(S(=O)(=O)c3ccc(C(F)(F)F)cc3)[C@@H]3O[C@]4(C)CC[C@@H]1[C@@]23OO4 | 2.39 nM | – | IC50 [5]: 3.15 nM; IC50 [3]: 2.04 nM
44 | CCCCNC(=O)CCC(C)[C@H]1CCC2C3C(C[C@H](OC(C)=O)[C@@]21C)[C@@]1(C)CC[C@]2(C[C@@H]1C[C@H]3OC(C)=O)OO[C@@]1(CC[C@]3(C)C4C[C@H](OC(C)=O)[C@@]5(C)C(CC[C@@H]5C(C)CCC(=O)NCCCC)C4[C@H](OC(C)=O)C[C@H]3C1)OO2 (stereo partly specified) | – | 20.1 nM | –
45 | C[C@@H]1CC[C@H]2[C@@H](C)C(=O)N(C(=O)c3ccc([N+](=O)[O-])cc3)[C@@H]3O[C@]4(C)CC[C@@H]1[C@@]23OO4 | – | – | IC50 [5]: 0.6 ng/mL; IC50 [6]: 0.45 ng/mL
46 | CC1=C(C(=O)c2ccccc2)O[C@@H]2O[C@]3(C)CC[C@H]4[C@H](C)CC[C@@H]1[C@@]24OO3 | – | – | IC50 [3]: 4.6 nM
47 | CCN(CC)Cc1ccc(C(C)O[C@H]2O[C@@H]3O[C@]4(C)CC[C@H]5[C@H](C)CC[C@@H]([C@H]2C)[C@@]35OO4)cc1O (stereo partly specified) | – | – | IC50 [5]: 0.18 ng/mL; IC50 [3]: 0.36 ng/mL
